Reference: US11071731B2, “Allosteric modulators of the mu opioid receptor” (Chiromics, LLC, priority 2017, dated 2021)

Experiments:
[1] = molecular target: T1, mu opioid receptor (MOR) (Homo sapiens, UniProt P35372); assay: Hit Hunter cAMP signaling assay (adenylyl cyclase inhibition), PAM mode with EC20 endomorphin-1; format: cell-based
[2] = molecular target: T1, mu opioid receptor (MOR); assay: PathHunter β-arrestin recruitment assay, PAM mode with EC20 endomorphin-1; format: cell-based; settings: for EC50: read-out: β-arr. EC50
Summary of the method: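 Enzyme fragment complementation read-out: β-gal ED fragment fused to receptor, EA fused to β-arrestin, recruitment restoring β-gal activity detected by chemiluminescence. EC50 and percent maximal response derived for each compound.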

[3] = cAMP EC50, adenylyl cyclase inhibition
[4] = maximal response for adenylyl cyclase inhibition
[5] = maximal response for β-arrestin recruitment
[6] = adenylyl cyclase inhibition, read-out: cAMP EC50
[7] = maximal response, adenylyl cyclase inhibition
[8] = maximal response, β-arrestin recruitment

T1 sequence (P35372 whole entry): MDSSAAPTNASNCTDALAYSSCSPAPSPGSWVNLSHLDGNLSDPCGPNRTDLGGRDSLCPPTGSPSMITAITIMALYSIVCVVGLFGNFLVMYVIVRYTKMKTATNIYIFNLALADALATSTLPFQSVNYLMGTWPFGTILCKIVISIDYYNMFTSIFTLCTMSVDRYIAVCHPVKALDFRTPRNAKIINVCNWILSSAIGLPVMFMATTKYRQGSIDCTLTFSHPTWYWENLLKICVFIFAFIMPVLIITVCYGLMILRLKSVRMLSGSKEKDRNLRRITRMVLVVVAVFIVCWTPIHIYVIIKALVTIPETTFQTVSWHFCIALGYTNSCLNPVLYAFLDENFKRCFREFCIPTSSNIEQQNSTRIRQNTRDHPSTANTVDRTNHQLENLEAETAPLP

Structure (SMILES) | EC50 [1, 3] [nM] | cAMP Max. Resp. [1, 4] | β-arr Max. Resp. [2, 5] | EC50 ([2]; β-arrestin recruitment) [nM] | EC50 [1, 6] [nM] | cAMP Max. Resp. [1, 7] | β-arr Max. Resp. [2, 8] | EC50 ([1]; cAMP EC50 (nM), adenylyl cyclase inhibition, Table 3) [nM] | cAMP Max Resp. ([1]; maximal response for adenylyl cyclase inhibition, Table 3) | β-arr. Max Resp. ([2]; maximal response for β-arrestin recruitment, Table 3) | EC50 ([2]; β-arrestin recruitment, Table 3) [nM]
FC(F)(F)c1cccc(C2CCCCN2Cc2ccc(Cl)cc2)n1 (centres unmarked) [compound 146] | > 2100 | D (D represents a maximal response of < 40%) | F (F represents a maximal response of > 60%) | > 2100 | – | – | – | – | – | – | –
Fc1cccc(C2CCCCN2c2nccc(Cl)n2)n1 (centres unmarked) [compound 260] | > 2100 | D (D represents a maximal response of < 40%) | D (D represents a maximal response of < 40%) | > 2100 | – | – | – | – | – | – | –
COc1ccc(C2CCCCN2c2nc(Cl)ncc2OC)cc1Br (centres unmarked) [compound 235] | > 2100 | F (F represents a maximal response of > 60%) | F (F represents a maximal response of > 60%) | > 2100 | – | – | – | – | – | – | –
Fc1cc(C2CCCCN2Cc2cccc(Br)c2)cc(C(F)(F)F)c1 (centres unmarked) [compound 148] | > 2100 | E (E represents a maximal response of 40-60%) | F (F represents a maximal response of > 60%) | 700 to 2100 | – | – | – | – | – | – | –
Fc1cnc(Cl)nc1N1CCCCC1c1ccncn1 (centres unmarked) [compound 391] | < 700 | D (D represents a maximal response of < 40%) | D (D represents a maximal response of < 40%) | < 700 | – | – | – | – | – | – | –
Fc1cc(C2CCC(F)CN2c2nc(Cl)ncc2F)cc(C(F)(F)F)c1 (centres unmarked) [compound 313] | – | E (E represents a maximal response of 40-60%) | F (F represents a maximal response of > 60%) | > 2100 | 700 to 2100 | – | – | – | – | – | –
Fc1cnc(Cl)nc1N1CC(F)(F)CC1c1cccc(C(F)(F)F)n1 (centres unmarked) [compound 482] | – | – | – | > 2100 | > 2100 | D (D represents a maximal response of < 40%) | D (D represents a maximal response of < 40%) | – | – | – | –
FC(F)(F)c1cccc(C2CCCCN2Cc2cc(Cl)cc(Cl)c2)n1 (centres unmarked) [compound 159] | 700 to 2100 | E (E represents a maximal response of 40-60%) | F (F represents a maximal response of > 60%) | 700 to 2100 | – | – | – | – | – | – | –
O=S(=O)(c1ccc(Cl)cc1F)N1CCCC(F)C1c1ccc(F)c(Br)c1 (centres unmarked) [Compound 37] | – | – | – | > 2100 | > 2100 | – | – | – | – | – | –
O=S(=O)(c1ccc(Cl)cc1)N1CCCCC1c1ccnc(F)c1 (racemic) [compound 59] | – | F (F represents a maximal response of > 60%) | F (F represents a maximal response of > 60%) | > 2100 | > 2100 | – | – | – | – | – | –
Fc1cnc(Cl)nc1N1CCCCC1c1cccc(C(F)(F)F)c1F (centres unmarked) [compound 355] | < 700 | D (D represents a maximal response of < 40%) | D (D represents a maximal response of < 40%) | < 700 | – | – | – | – | – | – | –
Fc1cc(C2CCCCN2Cc2cc(Cl)ccc2F)cc(C(F)(F)F)c1 (centres unmarked) [compound 167] | 700 to 2100 | F (F represents a maximal response of > 60%) | F (F represents a maximal response of > 60%) | < 700 | – | – | – | – | – | – | –
O=S(=O)(c1ccc(Cl)cc1)N1CCCCC1c1cccc(C(F)(F)F)n1 (centres unmarked) [compound 3] | < 700 | F (F represents a maximal response of > 60%) | F (F represents a maximal response of > 60%) | < 700 | – | – | – | – | – | – | –
Fc1ccc(C2C(F)CCCN2c2nc(Cl)ncc2F)cc1Br (centres unmarked) [compound 211] | > 2100 | E (E represents a maximal response of 40-60%) | F (F represents a maximal response of > 60%) | > 2100 | – | – | – | – | – | – | –
COc1ncc(N2CCCCC2c2cccc(C(F)(F)F)c2)c(F)n1 (centres unmarked) [compound 295] | – | D (D represents a maximal response of < 40%) | D (D represents a maximal response of < 40%) | > 2100 | > 2100 | – | – | – | – | – | –
COc1ccc(C2CC(C)CN2c2nc(Cl)ncc2F)cc1Br (centres unmarked) [compound 237] | – | D (D represents a maximal response of < 40%) | E (E represents a maximal response of 40-60%) | > 2100 | > 2100 | – | – | – | – | – | –
Fc1cnc(Cl)nc1N1CCCCC1c1ccc(Cl)c(Br)c1 (single isomer, unassigned) [compound 125] | < 700 | F (F represents a maximal response of > 60%) | F (F represents a maximal response of > 60%) | < 700 | – | – | – | – | – | – | –
FC(F)(F)c1cccc(C2CCCCN2Cc2cccc(Br)c2)n1 (centres unmarked) [compound 173] | < 700 | F (F represents a maximal response of > 60%) | F (F represents a maximal response of > 60%) | < 700 | – | – | – | – | – | – | –

Structure (SMILES) | EC50 [1, 3] [nM] | cAMP Max. Resp. [1, 4] | β-arr Max. Resp. [2, 5] | EC50 ([2]; β-arrestin recruitment) [nM] | EC50 [1, 6] [nM] | cAMP Max. Resp. [1, 7] | β-arr Max. Resp. [2, 8] | EC50 ([1]; cAMP EC50 (nM), adenylyl cyclase inhibition, Table 3) [nM] | cAMP Max Resp. ([1]; maximal response for adenylyl cyclase inhibition, Table 3) | β-arr. Max Resp. ([2]; maximal response for β-arrestin recruitment, Table 3) | EC50 ([2]; β-arrestin recruitment, Table 3) [nM]
Fc1cnc(Cl)nc1C1CCCCN1c1nc(Cl)ncc1F (centres unmarked) [compound 357] | < 700 | D (D represents a maximal response of < 40%) | D (D represents a maximal response of < 40%) | < 700 | – | – | – | – | – | – | –
Fc1ccc(C2CCCCN2Cc2cc(Cl)ccn2)cc1Cl (centres unmarked) [compound 145] | 700 to 2100 | E (E represents a maximal response of 40-60%) | F (F represents a maximal response of > 60%) | > 2100 | – | – | – | – | – | – | –
Fc1cnc(Cl)nc1N1CCCCC1c1ccc(OC(F)(F)F)c(Br)c1 (centres unmarked) [compound 126] | < 700 | E (E represents a maximal response of 40-60%) | F (F represents a maximal response of > 60%) | < 700 | – | – | – | – | – | – | –
Fc1cnc(Cl)nc1N1CCC(F)CC1c1cccc(C(F)(F)F)c1 (centres unmarked) [compound 197] | 700 to 2100 | F (F represents a maximal response of > 60%) | F (F represents a maximal response of > 60%) | 700 to 2100 | – | – | – | – | – | – | –
CC1CC(c2cc(F)cc(C(F)(F)F)c2)N(c2nc(Cl)ncc2F)C1 (centres unmarked) [compound 450] | – | – | – | > 2100 | > 2100 | E (E represents a maximal response of 40-60%) | F (F represents a maximal response of > 60%) | – | – | – | –
Cc1nccc(C2CCCCN2c2nc(Cl)ncc2F)n1 (centres unmarked) [compound 377] | < 700 | D (D represents a maximal response of < 40%) | D (D represents a maximal response of < 40%) | < 700 | – | – | – | – | – | – | –
Fc1ccc(Cl)nc1N1CCCCC1c1ccc(C(F)(F)F)nc1 (centres unmarked) [compound 415] | < 700 | D (D represents a maximal response of < 40%) | D (D represents a maximal response of < 40%) | < 700 | – | – | – | – | – | – | –
Fc1ccc(C2C(F)CCCN2c2nc(Cl)ncc2F)cc1Br (centres unmarked) [compound 210] | 700 to 2100 | E (E represents a maximal response of 40-60%) | F (F represents a maximal response of > 60%) | > 2100 | – | – | – | – | – | – | –
OC1CCN(c2nc(Cl)ncc2F)C(c2ccc(F)c(Cl)c2)C1 (centres unmarked) [compound 293] | 700 to 2100 | F (F represents a maximal response of > 60%) | F (F represents a maximal response of > 60%) | > 2100 | – | – | – | – | – | – | –
Fc1ccc(C2CCCCN2c2nc(Cl)ncc2F)cc1Cl (single isomer, unassigned) [compound 346] | – | D (D represents a maximal response of < 40%) | D (D represents a maximal response of < 40%) | < 700 | < 700 | – | – | – | – | – | –
Fc1ccc(C2CCCCN2Cc2cccc(Cl)n2)cc1Cl (centres unmarked) [compound 1] | < 700 | F (F represents a maximal response of > 60%) | F (F represents a maximal response of > 60%) | < 700 | – | – | – | 186 | 63 | 138 | 572
N#Cc1ccc(C2CCCCN2S(=O)(=O)c2ccc(Cl)cc2)cc1C(F)(F)F (racemic) [compound 49] | – | F (F represents a maximal response of > 60%) | F (F represents a maximal response of > 60%) | > 2100 | > 2100 | – | – | – | – | – | –
COc1ccc(C2C(C)CCN2S(=O)(=O)c2ccc(Cl)cc2)cc1Br (mixture of isomers) [Compound 102] | – | E (E represents a maximal response of 40-60%) | F (F represents a maximal response of > 60%) | > 2100 | 700 to 2100 | – | – | – | – | – | –
Fc1ccc(C2C3CCC(C3)N2c2nc(Cl)ncc2F)cc1Br (centres unmarked) [compound 136] | > 2100 | D (D represents a maximal response of < 40%) | F (F represents a maximal response of > 60%) | > 2100 | – | – | – | – | – | – | –
Fc1cnc(Cl)nc1N1CC(C(F)(F)F)CC1c1cccc(C(F)(F)F)c1 (centres unmarked) [compound 473] | – | – | – | > 2100 | > 2100 | D (D represents a maximal response of < 40%) | E (E represents a maximal response of 40-60%) | – | – | – | –
Fc1c(C2CCCCN2c2ccnc(Cl)n2)cccc1C(F)(F)F (centres unmarked) [compound 365] | < 700 | D (D represents a maximal response of < 40%) | D (D represents a maximal response of < 40%) | < 700 | – | – | – | – | – | – | –
Cc1ccc(C2C(C)CCN2S(=O)(=O)c2ccc(Cl)cc2)cc1Br (mixture of isomers) [Compound 104] | – | D (D represents a maximal response of < 40%) | F (F represents a maximal response of > 60%) | 700 to 2100 | 700 to 2100 | – | – | – | – | – | –
CC1CCN(S(=O)(=O)c2ccc(Cl)cc2)C1c1ccc(F)cc1 (mixture of isomers) [Compound 95] | – | D (D represents a maximal response of < 40%) | F (F represents a maximal response of > 60%) | > 2100 | > 2100 | – | – | – | – | – | –
